# Tests used:
# [1] = system: human airway epithelial cells (HAECs); assay: High-throughput sequencing (HTS) of miRNAs at four stages of differentiation of HAECs; conditions: for Modulation (ratio of the level of intensity of expression in log2 in two stages of differentiation) measured by high-throughput sequencing, D7 − D0 / Modulation (ratio of the level of intensity of expression in log2 in two stages of differentiation) measured by high-throughput sequencing, FC − D7 / Modulation (ratio of the level of intensity of expression in log2 in two stages of differentiation) measured by high-throughput sequencing, WD − D0 / Modulation (ratio of the level of intensity of expression in log2 in two stages of differentiation) measured by high-throughput sequencing, WD − FC / Level of intensity of expression in log2 measured by high-throughput sequencing, D0 / Level of intensity of expression in log2 measured by high-throughput sequencing, D7 / Level of intensity of expression in log2 measured by high-throughput sequencing, FC / Level of intensity of expression in log2 measured by high-throughput sequencing, WD: Table VI; for Level of intensity of expression in log2 At the differentiated stage (WD) measured in HTS: healthy human airway epithelial tissue; for Level of intensity of expression in log2 measured by high-throughput sequencing, D0: stage D0; for Level of intensity of expression in log2 measured by high-throughput sequencing, D7: stage D7; for Level of intensity of expression in log2 measured by high-throughput sequencing, FC: stage FC; for Level of intensity of expression in log2 At the differentiated stage (WD) measured in HTS / Level of intensity of expression in log2 measured by high-throughput sequencing, WD: stage WD
# From the text: The total RNAs were extracted from HAECs cultivated at the air-liquid interface at four stages of differentiation: ALI-D0 (0 day), ALI-D7 (7 days), ALI-FC (during appearance of the first cilia at about 14 days) and ALI-WD (wholly differentiated at about 21 days). The cells are lysed in reagent with Trizol® (Invitrogen). The total RNAs containing small RNAs and microRNAs are purified on Qiagen RNEasy columns (Qiagen) according to the supplier's instructions.
# The total RNAs containing small RNAs and microRNAs are isolated as before. The procedure is based on the Applied Biosystems Ligase-Enhanced Genome Detection technology (LEGenD™); the SOLiD™ Small RNA Expression kit (Applied Biosystems, France) was used. With this method it is possible to convert the small RNAs of a sample into a library of double-stranded DNA; it was developed by Applied Biosystems SOLiD™ System for a new generation of high-throughput sequencing.
# The high-throughput sequencing of the microRNAs was carried out according to the supplier's recommendations. Briefly, the total RNAs containing the small RNAs are hybridized (65° C., 10 min, then at 16° C., 5 min) and ligated (16° C., 2-16 h in a thermocycler) with the Adaptor Mix A for producing a matrix for sequencing the 5′ end of the small RNAs, or with the Adaptor Mix B for sequencing the 3′ end. The samples are then reverse-transcribed (42° C., 30 min) to synthesize the complementary DNA (cDNA). The library of small RNAs is amplified by PCR and after migration on polyacrylamide gel the amplified small RNAs are cut out and extracted from the gel according to their size (length of about 105-150 bases, according to the supplier's instructions), eluted and resuspended in nuclease-free water. The concentration of nucleic acids is then measured and normalized before proceeding with preparation of the samples for sequencing.
# For each microRNA sequenced, the number of sequences of the 5p strand and of the 3p strand of the microRNA was normalized to 10^6 sequences and converted to percentage abundance of expression for each of the microRNAs. The data were then normalized according to a linear model and an empirical Bayesian method using software R. For subsequent analyses, only the microRNAs were retained for which the percentage expression (or abundance) is greater than 1% of the total of the microRNAs in at least one culture condition, with a |Log2 Ratio| below 0.5 and an adjusted P-value below 0.05.
# [2] = system: human airway epithelial cells (HAECs); assay: Agilent miRNA chips, miRNA expression at four stages of differentiation of HAECs; conditions: for Modulation (ratio of the level of intensity of expression in log2 in two stages of differentiation) measured with the Agilent chips, D7 − D0 / Modulation (ratio of the level of intensity of expression in log2 in two stages of differentiation) measured with the Agilent chips, FC − D7 / Modulation (ratio of the level of intensity of expression in log2 in two stages of differentiation) measured with the Agilent chips, WD − D0 / Modulation (ratio of the level of intensity of expression in log2 in two stages of differentiation) measured with the Agilent chips, WD − FC / Level of intensity of expression in log2 measured with the Agilent chips, D0 / Level of intensity of expression in log2 measured with the Agilent chips, D7 / Level of intensity of expression in log2 measured with the Agilent chips, FC / Level of intensity of expression in log2 measured with the Agilent chips, WD: Table VI; for Modulation (ratio of the level of intensity of expression in log2 at two stages of differentiation), FC − D7 / Modulation (ratio of the level of intensity of expression in log2 at two stages of differentiation), WD − FC: Agilent miRNA chips, Table V; for Level of intensity of expression in log2 measured with the Agilent chips, D0: stage D0; for Level of intensity of expression in log2 measured with the Agilent chips, D7: stage D7; for Level of intensity of expression in log2 measured with the Agilent chips, FC: stage FC; for Level of intensity of expression in log2 measured with the Agilent chips, WD: stage WD
# From the text: In parallel with the high-throughput sequencing of the microRNAs, the repertoire of expression of the microRNAs (microRNAome) is investigated using the technology of Agilent® microRNA chips. For this, RNA samples from the same patients as before were used, labeled and hybridized on Agilent® miRNA chips (Human miRNA Microarray v2, containing 866 human miRNAs and 89 human viral miRNAs, i.e. all the human miRNAs contained and referenced in Sanger miRBase v.12.0, Agilent Technologies, France) using the “miRNA labeling and hybridization” kit, following the supplier's instructions (Agilent Technologies).
# The inventors then used the Agilent miRNA chips to investigate the repertoire of expression of the miRNAs of the human airway epithelium and compare the results obtained in high-throughput sequencing with those obtained with Agilent® commercial miRNA chips.
# [3] = system: basal cells and pyramidal cells of the airway epithelium; assay: miRNA expression in sorted basal cells versus pyramidal cells (ciliated + secretory), HTS and Agilent chips; set-up: species or system human; conditions: for Modulation of expression of the miRNAs in pyramidal cells (323(−)) relative to basal cells 323(+): HTS and Agilent chips; for Intensity of the level of expression in log2 in pyramidal cells (323(−)): pyramidal cells (ciliated + secretory)
# Description: After dissociation of the stroma of nasal polyps, the epithelial cells (about 20.10^6) are incubated in PBS-BSA-EDTA for 30 min and then incubated with labeled antibody CD151-PE and anti-TF (tissue factor)-FITC for 20 min, 4° C. (see Hajj, R. et al., Stem Cells 25, 139-148 (2007)). After washing twice, the cells are taken up in PBS-EDTA and incubated with DAPI for labeling the cells whose integrity has been altered.
# Cell sorting was carried out on the FACSAria sorter (BD Biosciences) equipped with 3 lasers, blue, red and violet. Dead cells, aggregates and double cells were excluded. The doubly positive population of basal cells (CD151+/FT+) and the negative population of cylindrical cells (containing ciliated cells and mucus-secreting cells) (CD151−/FT−) were selected and sorted at a rate of 5000 events/s ([…]). The purity and identity of the sorted cells were then verified by cytometry and immunocytochemistry.
# Like the native airway epithelium, the model of differentiation in vitro used in these tests consists of basal cells, ciliated cells and mucus-secreting cells. In order to identify the repertoires of the miRNAs specific to each of the cellular types, the inventors used cell sorting by flow cytometry by means of specific markers (Hajj, R. et al. 2007). Using this technique, adult airway progenitor cells (corresponding a priori to basal cells) were isolated, selected and sorted (such cells appear doubly positive for tetraspanin CD151 and for the tissue factor) from the pyramidal cells (i.e. ciliated cells and mucus-secreting cells) which appear negative for these same markers. These were purified from polyps or from nasal conchae obtained from 3 separate donors.
# After extracting the total RNAs, the expression profiles of the miRNAs were established by means of Agilent® commercial chips or by high-throughput sequencing (HTS). […] For the first time, the inventors thus attribute a repertoire of expression of the miRNAs specifically to separate cellular types of the airway epithelium during differentiation.
Substance,"Modulation (ratio of the level of intensity of expression in log2 in two stages of differentiation) measured by high-throughput sequencing, D7 − D0 [1]","Modulation (ratio of the level of intensity of expression in log2 in two stages of differentiation) measured by high-throughput sequencing, FC − D7 [1]","Modulation (ratio of the level of intensity of expression in log2 in two stages of differentiation) measured by high-throughput sequencing, WD − D0 [1]","Modulation (ratio of the level of intensity of expression in log2 in two stages of differentiation) measured by high-throughput sequencing, WD − FC [1]",Level of intensity of expression in log2 At the differentiated stage (WD) measured in HTS [1],"Level of intensity of expression in log2 measured by high-throughput sequencing, D0 [1]","Level of intensity of expression in log2 measured by high-throughput sequencing, D7 [1]","Level of intensity of expression in log2 measured by high-throughput sequencing, FC [1]","Level of intensity of expression in log2 measured by high-throughput sequencing, WD [1]","Modulation (ratio of the level of intensity of expression in log2 in two stages of differentiation) measured with the Agilent chips, D7 − D0 [2]","Modulation (ratio of the level of intensity of expression in log2 in two stages of differentiation) measured with the Agilent chips, FC − D7 [2]","Modulation (ratio of the level of intensity of expression in log2 in two stages of differentiation) measured with the Agilent chips, WD − D0 [2]","Modulation (ratio of the level of intensity of expression in log2 in two stages of differentiation) measured with the Agilent chips, WD − FC [2]","Level of intensity of expression in log2 measured with the Agilent chips, D0 [2]","Level of intensity of expression in log2 measured with the Agilent chips, D7 [2]","Level of intensity of expression in log2 measured with the Agilent chips, FC [2]","Level of intensity of expression in log2 measured with the Agilent chips, WD [2]",Modulation of expression of the miRNAs in pyramidal cells (323(−)) relative to basal cells 323(+) [3],Intensity of the level of expression in log2 in basal cells (323(+)) [3],Intensity of the level of expression in log2 in pyramidal cells (323(−)) [3],other results
"hsa-miR-16: human miRNA, SEQ ID No. 10 (UAGCAGCACGUAAAUAUUGGCG; expressed or natural sequence; listed as Homo sapiens)",2.01 log2,−1.17 log2,2.22 log2,1.38 log2,5.35 log2,3.13 log2,5.14 log2,3.97 log2,5.35 log2,2.07 log2,−0.36 log2,1.59 log2,−0.11 log2,9.47 log2,11.54 log2,11.18 log2,11.06 log2,−0.48,9.10 log2,8.62 log2,"Modulation (ratio of the level of intensity of expression in log2 at two stages of differentiation), FC − D7 [2]: −0.36 log2; Modulation (ratio of the level of intensity of expression in log2 at two stages of differentiation), WD − FC [2]: −0.11 log2"
"hsa-miR-17: human miRNA, SEQ ID No. 11 (CAAAGUGCUUACAGUGCAGGUAG; expressed or natural sequence; listed as Homo sapiens)",−0.17 log2,−0.87 log2,−1.24 log2,−0.20 log2,11.61 log2,12.85 log2,12.68 log2,11.81 log2,11.61 log2,0.31 log2,−1.14 log2,−1.22 log2,−0.39 log2,9.03 log2,9.34 log2,8.19 log2,7.81 log2,−2.60,6.64 log2,4.04 log2,"Modulation (ratio of the level of intensity of expression in log2 in two stages of differentiation), D7 − D0 ([1]; HTS): −0.17 log2; Modulation (ratio of the level of intensity of expression in log2 in two stages of differentiation), FC − D7 ([1]; HTS): −0.87 log2; Modulation (ratio of the level of intensity of expression in log2 in two stages of differentiation), WD − FC ([1]; HTS): −0.20 log2; Abundance (%), D0 ([1]; HTS, ALI-D0): 1.61%; Abundance (%), D7 ([1]; HTS, ALI-D7): 1.44%; Abundance (%), FC ([1]; HTS, ALI-FC): 0.76%; Abundance (%), WD ([1]; HTS, ALI-WD): 0.50%"
"hsa-miR-22: human miRNA, SEQ ID No. 23 (AAGCUGCCAGUUGAAGAACUGU; expressed or natural sequence; listed as Homo sapiens)",0.80 log2,−1.14 log2,0.40 log2,0.73 log2,11.22 log2,8.89 log2,9.69 log2,8.55 log2,9.29 log2,1.09 log2,−0.66 log2,0.48 log2,0.05 log2,10.67 log2,11.75 log2,11.10 log2,11.15 log2,−1.73,8.81 log2,7.07 log2,"Modulation (ratio of the level of intensity of expression in log2 at two stages of differentiation), FC − D7 [2]: −0.66 log2; Modulation (ratio of the level of intensity of expression in log2 at two stages of differentiation), WD − FC [2]: 0.05 log2"

# From patent publication US9023821B2, “Use of MicroRNA for treating diseases associated with a dysfunction of the cilia in multiciliated epithelial cells” (Centre National de la Recherche Scientifique, priority 2009, dated 2015)
